Data on 19 compounds can be found in PubChem BioAssay AID328 (DTP/NCI, 2004).

Where “and” joins values, the source holds several entries; their conditions need not be identical. Identical values can stand only once. Inconclusive results and toxic doses are left out.

The test concerns BDF1 mice, P388 leukemia ip, median survival T/C. The test is described as follows: NCI In Vivo Anticancer Drug Screen. Data for tumor model P388 Leukemia (intraperitoneal) in B6D2F1 (BDF1) mice. To be noted: endpoint: median survival time, higher = longer survival. The method in brief:
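Read-out is survival of treated animals expressed relative to the vehicle group, as a T/C ratio.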

Where [1] appears, read: dose: 50.0 mg/kg/injection, schedule: Q01DX009 (ip), vehicle: saline with Tween-80.
The mark [2] stands for this setting: dose: 100.0 mg/kg/injection, schedule: Q01DX009 (ip), vehicle: saline with Tween-80.
Where [3] appears, read: dose: 200.0 mg/kg/injection, schedule: Q01DX009 (ip), vehicle: saline with Tween-80.
[4] abbreviates: dose: 50.0 mg/kg/injection, schedule: Q04DX002 (ip), vehicle: saline with Tween-80.
Where [5] appears, read: dose: 200.0 mg/kg/injection, schedule: Q04DX002 (ip), vehicle: saline with Tween-80.
Setting [6] is: dose: 25.0 mg/kg/injection, schedule: Q04DX003 (ip), vehicle: saline.
Where [7] appears, read: dose: 50.0 mg/kg/injection, schedule: Q04DX003 (ip), vehicle: saline.
[8] abbreviates: dose: 100.0 mg/kg/injection, schedule: Q04DX003 (ip), vehicle: saline with Tween-80.
Setting [9] is: dose: 200.0 mg/kg/injection, schedule: Q04DX003 (ip), vehicle: saline with Tween-80.
Where [10] appears, read: dose: 400.0 mg/kg/injection, schedule: Q04DX003 (ip), vehicle: saline with Tween-80.

On to `COc1cc2c(c(OC)c1OC)-c1ccc(OC)c(=O)cc1[C@@H](NC(C)=O)CC2`, for which the T/C runs as follows: (dose: 0.04 mg/kg/injection, schedule: Q01DX010 (ip), vehicle: saline) 122 % of control; (dose: 0.13 mg/kg/injection, schedule: Q01DX009 (ip), vehicle: water) 171 % of control; (dose: 0.16 mg/kg/injection, schedule: Q01DX010 (ip), vehicle: saline) 181 % of control; (dose: 0.25 mg/kg/injection, schedule: Q01DX009 (ip), vehicle: water) 173 % of control; (dose: 0.32 mg/kg/injection, schedule: Q01DX010 (ip), vehicle: saline) 154 % of control and 181 % of control; (dose: 0.64 mg/kg/injection, schedule: Q01DX010 (ip), vehicle: saline) 163 % of control. Besides, the T/C was 153 % of control (dose: 250.0 micrograms/kg/injection, schedule: Q01DX009 (ip), vehicle: saline); 235 % of control (dose: 500.0 micrograms/kg/injection, schedule: Q01DX009 (ip), vehicle: saline); 222 % of control (dose: 1000.0 micrograms/kg/injection, schedule: Q01DX009 (ip), vehicle: saline).

For `O.O.O.O.O=C([OH2+])CN=Cc1ccccc1O.O=C([OH2+])CN=Cc1ccccc1O.[Ni].[Ni]`, the T/C (dose: 4.0 mg/kg/injection, schedule: Q01DX009 (ip), vehicle: saline with Tween-80) was 100 % of control; the T/C (dose: 6.25 mg/kg/injection, schedule: Q04DX003 (ip), vehicle: saline with Tween-80) was 113 % of control; the T/C (dose: 8.0 mg/kg/injection, schedule: Q01DX009 (ip), vehicle: saline with Tween-80) was 115 % of control.

Take `NC(=O)C1=C(O)C(=O)NC1=O`: the T/C was 100 % of control (dose: 50.0 mg/kg/injection, schedule: Q04DX003 (ip), vehicle: Klucel (hydroxypropylcellulose) (HPC)); 109 % of control (dose: 100.0 mg/kg/injection, schedule: Q04DX003 (ip), vehicle: Klucel (hydroxypropylcellulose) (HPC)); 95 % of control (dose: 200.0 mg/kg/injection, schedule: Q04DX003 (ip), vehicle: Klucel (hydroxypropylcellulose) (HPC)).

Consider `CSCCCNC(=O)c1csc(-c2csc(CCNC(=O)C(F)(F)F)n2)n1`, for which the T/C was 103 % of control under setting [1], 114 % of control under setting [2] and 87 % of control under setting [3].

As for `CCOC(=O)CC1=NN(C(=O)c2ccccc2)C(=NC(=O)c2ccccc2)SC1`, the T/C runs as follows: under setting [1], 99 % of control; under setting [2], 101 % of control; under setting [3], 90 % of control.

In the case of `C=CCc1ccc(OCCOC(=O)Nc2cccc(SC)c2)c(OC)c1`, the T/C was 90 % of control (dose: 12.5 mg/kg/injection, schedule: Q01DX009 (ip), vehicle: DMSO); 107 % of control (dose: 25.0 mg/kg/injection, schedule: Q01DX009 (ip), vehicle: DMSO); 93 % of control (dose: 50.0 mg/kg/injection, schedule: Q01DX009 (ip), vehicle: DMSO).

Regarding `O=C1OC(c2ccccc2)=N/C1=C\c1cccc(Br)c1`, the T/C is, setting by setting: under setting [4], 99 % of control; (dose: 100.0 mg/kg/injection, schedule: Q04DX002 (ip), vehicle: saline with Tween-80) 105 % of control; under setting [5], 89 % of control.

As for `CCN(C(=O)Nc1ccccc1)c1ccccc1`, the T/C was 104 % of control (dose: 100.0 mg/kg/injection, schedule: Q01DX001 (ip), vehicle: saline with Tween-80); 90 % of control (dose: 200.0 mg/kg/injection, schedule: Q01DX001 (ip), vehicle: saline with Tween-80); 95 % of control (dose: 400.0 mg/kg/injection, schedule: Q01DX001 (ip), vehicle: saline with Tween-80).

`c1ccc(C[P+](c2ccccc2)(c2ccccc2)c2ccccc2)cc1`: the T/C by setting is: (dose: 3.13 mg/kg/injection, schedule: Q01DX009 (ip), vehicle: Klucel (hydroxypropylcellulose) (HPC)) 104 % of control; (dose: 3.13 mg/kg/injection, schedule: Q04DX003 (ip), vehicle: Klucel (hydroxypropylcellulose) (HPC)) 104 % of control; (dose: 6.25 mg/kg/injection, schedule: Q01DX009 (ip), vehicle: Klucel (hydroxypropylcellulose) (HPC)) 118 % of control; (dose: 6.25 mg/kg/injection, schedule: Q04DX003 (ip), vehicle: Klucel (hydroxypropylcellulose) (HPC)) 113 % of control; (dose: 12.5 mg/kg/injection, schedule: Q04DX003 (ip), vehicle: Klucel (hydroxypropylcellulose) (HPC)) 118 % of control.

For `Cn1cnc([N+](=O)[O-])c1[Se]c1ncnc2c1c(C#N)cn2C1OC(CO)C(O)C1O` (centres undefined), the T/C is 93 % of control (dose: 6.25 mg/kg/injection, schedule: Q04DX003 (ip), vehicle: saline); 119 % of control (dose: 12.5 mg/kg/injection, schedule: Q04DX003 (ip), vehicle: saline); 102 % of control under setting [6].

For `CC(C)(CC(=O)O)c1ccccc1`, the T/C is 89 % of control and 109 % of control under setting [6]; 104 % of control and 120 % of control under setting [7]; 102 % of control and 106 % of control (dose: 100.0 mg/kg/injection, schedule: Q04DX003 (ip), vehicle: saline); 102 % of control and 110 % of control and 113 % of control (dose: 200.0 mg/kg/injection, schedule: Q04DX003 (ip), vehicle: saline); 105 % of control (dose: 400.0 mg/kg/injection, schedule: Q04DX003 (ip), vehicle: saline).

For `O=C1c2ccccc2C(=O)c2c(NCCNCCNCCO)ccc(NCCNCCNCCO)c21`, the T/C was 100 % of control (dose: 25.0 mg/kg/injection, schedule: Q01DX009 (ip), vehicle: water); 113 % of control (dose: 50.0 mg/kg/injection, schedule: Q01DX009 (ip), vehicle: water); 115 % of control (dose: 100.0 mg/kg/injection, schedule: Q01DX009 (ip), vehicle: water).

Turning to `C(=C\c1ccc2ccc(/C=C/c3ccccc3)cc2c1)/c1ccccc1`, the T/C is 112 % of control under setting [8], 90 % of control under setting [9] and 105 % of control under setting [10].

As to `CCn1cnc2c(SC)ncnc21`, the T/C runs as follows: (dose: 18.75 mg/kg/injection, schedule: Q01DX009 (ip), vehicle: saline) 109 % of control; under setting [6], 86 % of control; (dose: 37.5 mg/kg/injection, schedule: Q01DX009 (ip), vehicle: saline) 100 % of control; under setting [7], 104 % of control; (dose: 75.0 mg/kg/injection, schedule: Q01DX009 (ip), vehicle: saline) 104 % of control; (dose: 75.0 mg/kg/injection, schedule: Q04DX003 (ip), vehicle: Klucel (hydroxypropylcellulose) (HPC)) 95 % of control.

Turning to `CCCS(=O)(=O)N(CC(=O)O)Cc1ccccc1`, the T/C is, setting by setting: (dose: 25.0 mg/kg/injection, schedule: Q04DX003 (ip), vehicle: other) 106 % of control; (dose: 50.0 mg/kg/injection, schedule: Q04DX003 (ip), vehicle: other) 104 % of control; (dose: 100.0 mg/kg/injection, schedule: Q04DX003 (ip), vehicle: other) 100 % of control; (dose: 200.0 mg/kg/injection, schedule: Q04DX003 (ip), vehicle: other) 106 % of control; (dose: 400.0 mg/kg/injection, schedule: Q04DX003 (ip), vehicle: other) 106 % of control.

For `O=C(Nc1nncs1)c1ccncc1`, the T/C under setting [4] was 90 % of control; the T/C under setting [5] was 152 % of control; the T/C (dose: 400.0 mg/kg/injection, schedule: Q04DX002 (ip), vehicle: saline with Tween-80) was 100 % of control.

For `O=C(Oc1ccc([N+](=O)[O-])cc1)c1ccc2ccccc2n1`, the T/C runs as follows: under setting [2], 111 % of control; under setting [8], 95 % of control; under setting [3], 111 % of control; under setting [9], 109 % of control; (dose: 400.0 mg/kg/injection, schedule: Q01DX009 (ip), vehicle: saline with Tween-80) 95 % of control; under setting [10], 90 % of control.

For the compound `Nc1cc(S(N)(=O)=O)ccc1SSc1ccc(S(N)(=O)=O)cc1N`, the T/C was 122 % of control (dose: 100.0 mg/kg/injection, schedule: Q01DX009 (ip), vehicle: saline) and 154 % of control (dose: 200.0 mg/kg/injection, schedule: Q01DX009 (ip), vehicle: saline).

Turning to `O=C(O)c1cc(Cl)c(C(=O)O)cc1Cl`, the T/C is, setting by setting: (dose: 75.0 mg/kg/injection, schedule: Q01DX009 (ip), vehicle: saline with Tween-80) 116 % of control; (dose: 150.0 mg/kg/injection, schedule: Q01DX009 (ip), vehicle: saline with Tween-80) 104 % of control; (dose: 300.0 mg/kg/injection, schedule: Q01DX009 (ip), vehicle: saline with Tween-80) 108 % of control.
